What was measured:
MV4-11 = assay: Resazurin proliferation assay, leukaemia cell line; type: cell-based; details: Homo sapiens, 72 h, read-out: Antiproliferative activity GI50 MV4-11
Excerpt: (§1) Representative compounds from Example 1, were subjected to standard MTT (3-(4,5-dimethylthiazol-2-yl)-2,5-diphenyltetrazolium bromide) and resazurin assays on solid tumour cell lines (including GBM cell lines) and leukemia cell lines, respectively, as previously reported (Wang S et al., J Med Chem 47:1662-1675, 2004; and Diab S. et al. CheMedChem 9:962-972, 2014).

H460 = assay: MTT proliferation assay, lung; type: cell-based; details: Homo sapiens, NCI-H460, 72 h, read-out: Antiproliferative activity GI50 H460
Excerpt: as §1

LNCap = assay: MTT proliferation assay, prostate; type: cell-based; details: Homo sapiens, 72 h, read-out: Antiproliferative activity GI50 LNCap
Excerpt: as §1

GBM U87 cells = assay: Annexin V/PI apoptosis assay; type: cell-based; details: 5 μM, 48 hours, with or without 5 μM TMZ
Experimental: The ability of compound 1 to induce apoptosis in GBM cells was investigated using the annexin V-FITC apoptosis detection kit I (BD Pharmingen Inc.; San Diego, Calif., United States of America) according to the manufacturer's protocol. Cell pellets were washed twice with 1 mL cold PBS and centrifuged at 300×g for 5 mins. Following the removal of supernatants, cell pellets were stained with 100 μL 1× annexin V binding buffer, 3 μL annexin V-FITC and 3 μL propidium iodide staining solution, and incubated in the dark at room temperature for 15 mins. The percentage of apoptic cells was measured by a CytoFLEX flow cytometer.

[1] = test system: GBM cell lines (U87, U251, T98G); assay: In vitro tumorigenicity (colony formation) assay; type: cell-based; details: 10 days, crystal violet staining, FIG. 3B
Experimental: All three GBM cell lines used in this example, namely U87, U251 and T98G, were cultured in Eagle's Minimum Essential Medium (EMEM) with 10% fetal bovine serum in 75 cm^2 flasks at 37° C. and 5% CO2. All cell lines were confirmed to be mycoplasma-free prior to any experiment setup.
A density of 200 to 400 cells/well was seeded in a twelve-well plate and incubated for overnight prior to compound treatment. […] After 10 days, cells were washed with PBS, fixed and stained with crystal violet staining solution (0.05% crystal violet, 1% formaldehyde, 1% PBS, 1% ethanol); the results are shown in FIG. 3B.

U87 GBM cells = assay: Subcutaneous U87 GBM xenograft, single agents; type: in vivo
Excerpt: Compound 1 and compound 2 were also investigated for in vivo antitumour activity in subcutaneous xenograft models. Briefly, U87 GBM cells were harvested and resuspended in a 1:1 mixture of serum-free media and matrigel, and 5×10^6 cells injected subcutaneously into the rear flank of 5-6-week-old CD1 nu/nu female mice. When the mean tumour volume reached 150-200 mm^3, animals were randomised to treatment groups (n=10 per group) and treated orally with vehicle (0.5% carboxymethyl cellulose in water), compound 1 or compound 2 daily for 21 days with the doses shown in FIGS. 5A and 5B. Mice were observed daily for signs of toxicity and weight loss, and tumour volume measured every other day.

CNc1nc(C)c(-c2nc(Nc3ccc(N4CCC(N(C)C)CC4)cn3)ncc2F)s1 [Compound 1, 5-(2-((5-(4-(dimethylamino)piperidin-1-yl)pyridin-2-yl)amino)-5-fluoropyrimidin-4-yl)-N,4-dimethylthiazol-2-amine]
GI50 (MV4-11): 110 nM | GI50 (H460): 3280 nM | GI50 (LNCap): 620 nM | induction of apoptosis (annexin V/PI) (GBM U87 cells): capable of inducing apoptosis in GBM cells to a greater level than the control anti-cancer agent, palbociclib | growth and proliferation (colony formation) [1]: inhibits the growth and proliferation of all three GBM cell lines | T/C (U87 GBM cells; day 21, oral daily for 21 days, vs vehicle, p<0.001): 310% | tumour growth compared to vehicle treatment (U87 GBM cells; oral daily for 21 days): markedly reduced tumour growth | toxicity (U87 GBM cells; oral daily for 21 days, observed daily for signs of toxicity and weight loss): without any overt toxicity
